Test results: paper PMC10818749, “Toxicity Studies of Cardiac-Targeting Peptide Reveal a Robust Safety Profile” (Pharmaceutics, 2024)
Ends that are not written are not given here.

Columns and labels:
[1] = molecular target: T1, HEK-Nav1.5 (Late, Antagonist) (Homo sapiens, UniProt Q14524); type: cell-based; conditions: CTP 0.1 to 30 µM; HEK cells; late current, ramp with 50nM ATXII; antagonist; 0.1% Pluronic F-68
T1 construct: CYL7004QB2DR (late); host or cells: HEK

hERG = hERG (Homo sapiens, UniProt Q12809); assay: in vitro; type: cell-based; conditions: up to 30 µM
Procedure: Ion Channel Assays: Cell lines were grown, plated, and loaded with 1× loading buffer containing 1× dye and 2.5 mM freshly prepared probenecid. Assays were performed, and activity was measured using a FLIPR Tetra. Percent of activation and percent of inhibition were calculated to determine agonist and antagonist activity, respectively. […]
The FLIPR Potassium Assay Kit from Molecular Devices is used. It exploits the permeability of thallium ions (Tl+) through both voltage-and ligand-gated potassium (K+) channels. A novel, highly-sensiti ve
Tl+ indicator dye is utilized which produces a bright fluorescent signal upon the binding to Tl+ conducted through potassium chan-nels. […]
KINOMEscan® Assay fluorescence for improved signal/noise ratio.
The KINOMEscan screening platform employs a novel and propri- Membrane Potential Assay etary active site-directed competition binding assay to quantitatively The FLIPR® Membrane Potential Assay Kit is used which utilizes a pro-measure interactions between test compounds and the kinases. prietary fluorescent indicator dye in combination with a quencher to This robust and reliable assay technology affords investigators the reflect real-time membrane potential changes associated with ion ability to extensively annotate compounds with accurate, precise channel activation and ion transporter proteins. […]

HEK-Cav1.2 = HEK-Cav1.2 (Homo sapiens, UniProt Q13936); conditions: CTP 0.1 to 30 µM; HEK cells; -100mV to +20mV; 0.1% Pluronic F-68
HEK-Kir2.1 = molecular target: T2, HEK-Kir2.1 (Homo sapiens, UniProt P63252); type: cell-based; conditions: CTP 0.1 to 30 µM; HEK cells; step to -120mV; 0.1% Pluronic F-68
T2 construct: host or cells: HEK

COX1 = molecular target: T3, COX1 (Homo sapiens, UniProt P23219); assay: COX1 enzymatic assay; type: biochemical; conditions: up to 30 µM
T3 construct: purchased BPS Bioscience
Procedure: Enzymatic Assays: AChE, COX1, COX2, MAOA, PDE3A, and PDE4D2 activity assays were performed to determine CTP effects on each individual enzyme. Fluorescence was read using a PerkinElmer Envision, and percentage inhibition and compound activity calculated. […]
in complementation with EA generating a unit of active β-gal and based assay for the detection of dopamine, norepinephrine or sero-production of a chemiluminescent signal upon the addition of Path- tonin transporter activity in cells expressing these transporters. The Hunter detection reagents. kit employs a fluorescent substrate that mimics the biogenic amine neurotransmitters that are taken into the cell through these specific transporters, resulting in increased intracellular fluorescence inten-sity. […]
KINOMEscan® Assay fluorescence for improved signal/noise ratio. […]
Compounds that bind the kinase active site and directly (sterically) be monitored within a single experiment. or indirectly (allosterically) prevent kinase binding to the immobi-lized ligand, will reduce the amount of kinase captured on the solid Calcium Assay […]
kinase have no effect on the amount of kinase captured on the of changes in intracellular calcium. […] Upon stimulation, a quantitative, precise and ultra-sensitive qPCR method that detects the receptor signals release of intracellular calcium, which results in the associated DNA label (D). […]

hERG, sequence (Q12809 whole entry): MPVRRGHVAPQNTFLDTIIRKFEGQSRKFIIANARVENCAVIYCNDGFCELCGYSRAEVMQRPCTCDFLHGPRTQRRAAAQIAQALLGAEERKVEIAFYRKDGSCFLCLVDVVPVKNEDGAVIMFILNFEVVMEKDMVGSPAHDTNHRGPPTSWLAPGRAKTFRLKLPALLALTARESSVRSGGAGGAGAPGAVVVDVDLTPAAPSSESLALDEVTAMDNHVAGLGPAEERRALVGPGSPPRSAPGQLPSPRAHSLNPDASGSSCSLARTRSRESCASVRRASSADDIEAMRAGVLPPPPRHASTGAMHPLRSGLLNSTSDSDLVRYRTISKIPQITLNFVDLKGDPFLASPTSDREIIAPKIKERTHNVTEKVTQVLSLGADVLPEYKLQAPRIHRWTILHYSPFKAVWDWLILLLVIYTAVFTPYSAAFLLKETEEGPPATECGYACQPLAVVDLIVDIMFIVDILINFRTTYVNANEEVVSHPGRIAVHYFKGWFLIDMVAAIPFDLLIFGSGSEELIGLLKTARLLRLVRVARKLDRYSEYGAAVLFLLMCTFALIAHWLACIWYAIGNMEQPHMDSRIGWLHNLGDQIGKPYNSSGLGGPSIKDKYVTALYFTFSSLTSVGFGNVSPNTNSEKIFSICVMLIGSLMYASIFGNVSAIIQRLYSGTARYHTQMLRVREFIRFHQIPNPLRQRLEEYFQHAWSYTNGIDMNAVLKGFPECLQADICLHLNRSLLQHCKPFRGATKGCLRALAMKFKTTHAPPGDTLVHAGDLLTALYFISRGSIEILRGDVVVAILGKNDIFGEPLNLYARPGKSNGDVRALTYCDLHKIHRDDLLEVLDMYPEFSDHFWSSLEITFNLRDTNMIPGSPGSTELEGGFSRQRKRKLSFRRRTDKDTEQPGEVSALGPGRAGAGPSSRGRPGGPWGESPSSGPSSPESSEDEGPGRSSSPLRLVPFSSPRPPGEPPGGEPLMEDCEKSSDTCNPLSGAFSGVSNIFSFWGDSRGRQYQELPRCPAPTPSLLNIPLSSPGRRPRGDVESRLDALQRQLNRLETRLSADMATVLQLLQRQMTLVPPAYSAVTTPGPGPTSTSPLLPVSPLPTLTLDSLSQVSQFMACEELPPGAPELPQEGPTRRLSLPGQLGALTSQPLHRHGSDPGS
HEK-Cav1.2, sequence (Q13936 whole entry): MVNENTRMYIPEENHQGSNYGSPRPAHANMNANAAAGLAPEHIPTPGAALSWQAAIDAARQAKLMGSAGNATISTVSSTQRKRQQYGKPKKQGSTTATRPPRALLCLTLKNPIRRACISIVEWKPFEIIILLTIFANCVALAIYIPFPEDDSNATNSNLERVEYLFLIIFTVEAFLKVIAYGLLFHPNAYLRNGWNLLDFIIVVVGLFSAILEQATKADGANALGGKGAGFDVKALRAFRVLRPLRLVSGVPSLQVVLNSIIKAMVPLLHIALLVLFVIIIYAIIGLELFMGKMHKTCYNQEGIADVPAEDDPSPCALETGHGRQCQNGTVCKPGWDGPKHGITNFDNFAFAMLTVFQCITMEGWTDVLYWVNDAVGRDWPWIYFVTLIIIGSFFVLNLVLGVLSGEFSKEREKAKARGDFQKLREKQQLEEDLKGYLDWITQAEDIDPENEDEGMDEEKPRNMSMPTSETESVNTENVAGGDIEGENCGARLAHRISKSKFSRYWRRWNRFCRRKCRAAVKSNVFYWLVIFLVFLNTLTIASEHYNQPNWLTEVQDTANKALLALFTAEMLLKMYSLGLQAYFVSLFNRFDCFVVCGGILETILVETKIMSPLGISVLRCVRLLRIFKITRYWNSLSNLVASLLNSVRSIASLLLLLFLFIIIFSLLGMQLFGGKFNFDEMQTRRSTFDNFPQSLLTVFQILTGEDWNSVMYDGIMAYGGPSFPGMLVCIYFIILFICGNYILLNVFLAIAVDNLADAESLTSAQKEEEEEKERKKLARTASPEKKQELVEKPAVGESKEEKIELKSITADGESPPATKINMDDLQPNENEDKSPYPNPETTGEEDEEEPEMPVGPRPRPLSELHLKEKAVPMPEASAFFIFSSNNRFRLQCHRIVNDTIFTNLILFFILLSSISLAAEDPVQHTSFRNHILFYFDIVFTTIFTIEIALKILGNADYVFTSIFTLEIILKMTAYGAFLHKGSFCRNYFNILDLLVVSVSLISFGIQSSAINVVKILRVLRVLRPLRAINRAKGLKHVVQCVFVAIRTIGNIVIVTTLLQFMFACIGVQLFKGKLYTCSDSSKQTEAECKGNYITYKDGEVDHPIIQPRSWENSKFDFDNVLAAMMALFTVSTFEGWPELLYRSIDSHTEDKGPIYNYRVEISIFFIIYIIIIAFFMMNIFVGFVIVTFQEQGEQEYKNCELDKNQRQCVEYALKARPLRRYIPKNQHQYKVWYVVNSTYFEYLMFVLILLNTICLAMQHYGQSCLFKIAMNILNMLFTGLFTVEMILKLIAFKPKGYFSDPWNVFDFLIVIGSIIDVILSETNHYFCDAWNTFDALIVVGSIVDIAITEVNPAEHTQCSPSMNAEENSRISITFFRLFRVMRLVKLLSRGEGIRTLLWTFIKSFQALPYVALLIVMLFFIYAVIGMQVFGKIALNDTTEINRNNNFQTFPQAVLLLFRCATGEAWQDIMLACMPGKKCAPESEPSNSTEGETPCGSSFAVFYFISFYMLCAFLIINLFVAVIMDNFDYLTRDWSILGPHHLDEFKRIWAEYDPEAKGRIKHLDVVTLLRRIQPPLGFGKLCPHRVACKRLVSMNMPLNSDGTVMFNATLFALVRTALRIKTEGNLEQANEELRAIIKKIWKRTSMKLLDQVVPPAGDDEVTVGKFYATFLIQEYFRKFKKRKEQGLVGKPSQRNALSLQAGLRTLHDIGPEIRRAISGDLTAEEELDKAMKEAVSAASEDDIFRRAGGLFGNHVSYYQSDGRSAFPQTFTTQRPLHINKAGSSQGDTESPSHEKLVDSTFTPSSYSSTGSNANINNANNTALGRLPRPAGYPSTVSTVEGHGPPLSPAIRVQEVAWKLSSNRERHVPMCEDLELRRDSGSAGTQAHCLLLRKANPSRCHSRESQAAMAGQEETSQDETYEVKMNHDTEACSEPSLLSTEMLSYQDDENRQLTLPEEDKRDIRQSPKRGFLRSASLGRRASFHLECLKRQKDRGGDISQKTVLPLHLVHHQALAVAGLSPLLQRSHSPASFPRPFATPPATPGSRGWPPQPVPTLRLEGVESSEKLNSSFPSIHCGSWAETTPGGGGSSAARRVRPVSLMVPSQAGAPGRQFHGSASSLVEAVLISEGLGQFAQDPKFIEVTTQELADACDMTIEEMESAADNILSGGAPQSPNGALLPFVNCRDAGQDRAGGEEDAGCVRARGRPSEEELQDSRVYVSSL
HEK-Cav1.2, sequence (Q08289 whole entry partner): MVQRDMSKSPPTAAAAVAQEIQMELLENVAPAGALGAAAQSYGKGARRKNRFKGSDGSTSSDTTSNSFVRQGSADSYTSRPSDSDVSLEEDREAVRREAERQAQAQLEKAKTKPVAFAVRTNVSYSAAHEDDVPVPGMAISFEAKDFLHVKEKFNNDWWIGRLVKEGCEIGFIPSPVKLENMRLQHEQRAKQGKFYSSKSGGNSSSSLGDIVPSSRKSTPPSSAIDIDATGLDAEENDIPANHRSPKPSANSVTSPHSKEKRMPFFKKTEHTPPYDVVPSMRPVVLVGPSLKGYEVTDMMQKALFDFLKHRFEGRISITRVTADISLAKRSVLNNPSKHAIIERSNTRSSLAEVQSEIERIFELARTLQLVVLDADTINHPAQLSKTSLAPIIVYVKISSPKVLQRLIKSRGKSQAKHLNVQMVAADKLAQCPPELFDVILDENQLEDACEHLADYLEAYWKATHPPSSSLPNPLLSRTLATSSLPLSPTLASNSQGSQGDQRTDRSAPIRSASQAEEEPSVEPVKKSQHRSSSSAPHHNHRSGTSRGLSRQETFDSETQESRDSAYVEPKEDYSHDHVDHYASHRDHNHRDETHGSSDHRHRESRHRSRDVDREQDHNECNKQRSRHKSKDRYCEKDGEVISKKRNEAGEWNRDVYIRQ
HEK-Cav1.2, sequence (P54289 25-946 partner limits assumed): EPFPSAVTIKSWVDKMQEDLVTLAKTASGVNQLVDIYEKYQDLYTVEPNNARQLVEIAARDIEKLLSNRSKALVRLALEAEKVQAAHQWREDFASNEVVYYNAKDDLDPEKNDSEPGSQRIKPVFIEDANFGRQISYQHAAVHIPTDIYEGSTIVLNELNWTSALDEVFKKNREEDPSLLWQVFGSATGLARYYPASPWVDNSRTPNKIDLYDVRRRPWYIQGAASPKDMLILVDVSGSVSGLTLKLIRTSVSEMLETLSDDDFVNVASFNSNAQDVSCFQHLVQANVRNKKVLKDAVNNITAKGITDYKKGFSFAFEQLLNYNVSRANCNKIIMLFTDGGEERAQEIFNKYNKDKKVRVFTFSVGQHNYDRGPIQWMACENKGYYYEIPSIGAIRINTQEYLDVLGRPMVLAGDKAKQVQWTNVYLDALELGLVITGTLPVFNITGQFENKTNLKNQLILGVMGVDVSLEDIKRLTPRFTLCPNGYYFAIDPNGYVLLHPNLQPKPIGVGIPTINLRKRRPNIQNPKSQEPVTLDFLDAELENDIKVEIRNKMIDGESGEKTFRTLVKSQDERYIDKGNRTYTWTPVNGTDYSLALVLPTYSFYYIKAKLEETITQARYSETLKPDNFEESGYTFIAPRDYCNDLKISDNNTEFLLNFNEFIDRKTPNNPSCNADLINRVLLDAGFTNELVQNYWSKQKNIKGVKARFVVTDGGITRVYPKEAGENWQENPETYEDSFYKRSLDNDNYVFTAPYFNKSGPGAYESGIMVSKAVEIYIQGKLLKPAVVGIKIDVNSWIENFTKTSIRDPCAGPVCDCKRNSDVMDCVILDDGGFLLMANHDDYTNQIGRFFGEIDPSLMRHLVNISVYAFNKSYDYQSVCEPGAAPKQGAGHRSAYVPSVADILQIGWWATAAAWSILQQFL
HEK-Cav1.2, sequence (P54289 947-1103 partner limits assumed): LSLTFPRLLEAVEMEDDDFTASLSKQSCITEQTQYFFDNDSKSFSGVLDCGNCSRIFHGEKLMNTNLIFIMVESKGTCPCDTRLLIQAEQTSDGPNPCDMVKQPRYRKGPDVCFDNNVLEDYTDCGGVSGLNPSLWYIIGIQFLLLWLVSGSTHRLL

Q: APWHLSSQYSRT [CTP] was tested. Which “Estimated IC50” value [1] did it give?
A: N/C (Not calculable, inhibition >25% was not observed.)

Q: And the blocking or activation (hERG; SAFETYscan ion channel assay)?
A: no significant blocking or activation

Q: What about the IC50 (hERG; human, blocker, FLIPR Tetra, read-out: RC50 (the source's name)) of the same sequence?
A: > 30 µM

Q: What about the “Estimated IC50” value (HEK-Cav1.2) of the same sequence?
A: N/C (Not calculable, inhibition >25% was not observed.)

Q: And the “Estimated IC50” value (HEK-Kir2.1)?
A: N/C (Not calculable, inhibition >25% was not observed.)

Q: And the inhibition (COX1)?
A: some inhibition of COX1 was noted, although it did not reach the set significance threshold
